Key:
PDE1 = assay: PDE enzymatic assay (radioactive tracer, 3H-cAMP/3H-cGMP); format: biochemical; conditions: 3H-cAMP or 3H-cGMP substrate, 24 °C, 30 min; read-out: IC50 against PDE1
Method: (§1) All the enzymatic activities of PDEs were assayed by using ^3H- cyclic guanosine monophosphate (cGMP) or ^3H-cAMP as the substrate. PDEs were firstly incubated with the reaction mixture of 50 mmol/L Tris-hydrogen chloride (HCl), pH 7.8, 10 mmol/L magnesium chloride (MgCl2) and ^3H-cAMP or ^3H-cGMP (40, 000 cpm/assay) at 24 °C for 30 min. Then, the reaction was terminated by addition of zinc sulfate and barium hydroxide. Activity of test compounds was assessed by measuring the amount of ^3H-cGMP or ^3H-cAMP resulting from enzyme cleavage. The reaction product ^3H-AMP or ^3H-GMP was precipitated by adding barium sulfate, while unreacted ^3H-cAMP or ^3H-cGMP remained in the supernatant. Radioactivity in the supernatant was measured in 2.5 mL of ultima gold liquid scintillation. At least eight concentrations of inhibitors (0.05–500 μM) were used in the presence of suitable substrates for the measurement of half maximal inhibitory concentration IC50 values, which were calculated by non-linear regression. Each measurement was repeated three times.

PDE2 = PDE2 (Homo sapiens, UniProt O00408); assay: as above; format: biochemical; conditions: 3H-cAMP or 3H-cGMP substrate, 24 °C, 30 min; read-out: IC50 against PDE2
Sequence of PDE2 (O00408 whole entry): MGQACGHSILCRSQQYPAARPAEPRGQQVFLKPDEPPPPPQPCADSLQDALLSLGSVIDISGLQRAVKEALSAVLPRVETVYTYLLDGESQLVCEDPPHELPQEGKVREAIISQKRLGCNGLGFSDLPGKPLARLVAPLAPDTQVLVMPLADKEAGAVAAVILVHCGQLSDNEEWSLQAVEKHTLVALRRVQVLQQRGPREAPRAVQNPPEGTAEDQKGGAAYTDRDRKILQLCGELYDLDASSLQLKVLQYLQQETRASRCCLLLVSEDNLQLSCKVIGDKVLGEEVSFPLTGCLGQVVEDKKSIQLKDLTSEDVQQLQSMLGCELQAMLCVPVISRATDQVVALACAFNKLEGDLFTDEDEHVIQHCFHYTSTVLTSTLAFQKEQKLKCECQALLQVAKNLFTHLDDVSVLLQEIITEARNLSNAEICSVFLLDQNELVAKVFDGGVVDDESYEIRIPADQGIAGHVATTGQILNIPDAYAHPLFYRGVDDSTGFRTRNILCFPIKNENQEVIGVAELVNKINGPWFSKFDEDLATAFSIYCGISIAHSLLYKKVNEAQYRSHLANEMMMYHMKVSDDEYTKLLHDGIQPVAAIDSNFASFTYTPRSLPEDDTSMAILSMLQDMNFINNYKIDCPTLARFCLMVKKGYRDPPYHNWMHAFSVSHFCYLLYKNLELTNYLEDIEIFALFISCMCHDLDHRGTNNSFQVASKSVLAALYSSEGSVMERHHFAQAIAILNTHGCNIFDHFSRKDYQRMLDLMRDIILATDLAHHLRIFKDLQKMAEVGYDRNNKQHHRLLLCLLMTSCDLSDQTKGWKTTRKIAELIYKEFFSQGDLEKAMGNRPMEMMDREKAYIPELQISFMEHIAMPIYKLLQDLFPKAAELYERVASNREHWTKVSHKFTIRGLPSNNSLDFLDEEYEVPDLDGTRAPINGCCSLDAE
Method: as §1

PDE3 = assay: as above; format: biochemical; conditions: 3H-cAMP or 3H-cGMP substrate, 24 °C, 30 min; read-out: IC50 against PDE3
Method: as §1

PDE4 = assay: as above; format: biochemical; conditions: for IC50: 3H-cAMP or 3H-cGMP substrate, 24 °C, 30 min, read-out: IC50 against PDE4
Method: as §1

PDE5 = PDE5 (Homo sapiens, UniProt O76074); assay: as above; format: biochemical; conditions: 3H-cAMP or 3H-cGMP substrate, 24 °C, 30 min; read-out: IC50 against PDE5
Method: as §1

[1] = system: chronic unpredictable stress mice; assay: Sucrose preference test (SPT) after chronic unpredictable stress; format: in vivo, male ICR mice; conditions: RES003 5 and 10 mg/kg (medium and large dose), once a day for 10 days, CUS mice, vs model group, p < 0.01
Method: (§2) Male ICR mice, weighing between 22–25 g, were obtained from the Animal Centre at Changzhou University. All experiments were carried out according to the National Institute of Health Guide for Care and Use of Laboratory Animals (1996) and were approved by the Institutional Animal Care and Use Committee of Changzhou University (NO. Y20180023). Fluoxetine and resveratrol were purchased from Sigma Chemical Co. (St Louis, MO). For animal behavioural tests, RES003 and rolipram were dissolved in saline containing 5% DMSO, 5% Solutol and 90% saline. The positive control drug fluoxetine was dissolved simply in saline. Mice were given intra-gastric (i.g.) administration (RES003: 2.5, 5.0 and 10 mg/kg) or intraperitoneal (i.p.) injections (fluoxetine: 5 mg/kg and rolipram: 10 mg/kg) in a volume of 10 mL/kg body weight.
(§3) The chronic unpredictable stress procedure was carried out as described previously with minor modification (Polster and Fiskum [2004]). […]
(§4) After the chronic un-predictable stress (CUS) procedure, sucrose preference test was assessed on the following day, and then forced swimming test (FST) was carried out the next day. […]
The SPT was performed according to the previous description with minor modification (Yu et al. [2013]). […] The sucrose preference was calculated as the ratio of the consumed sucrose solution to the total amount of liquid consumed.

mice = assay: Locomotor activity (LA) test, open-field chamber; format: in vivo, male ICR mice; conditions: RES003 at the dose that significantly reduced immobility response, 30 min before test
Method: as §2
LA test was assessed using an open-field chamber according to previous procedure (Li et al. [2014]). The floor of the chamber was divided into 16 identical squares. Mice were individually placed in the centre of the chamber and allowed to acclimatize for 15 min. Their paws were contacted or disconnected the active bars which can produce random configurations. The locomotor counts of mice were measured by counting the number of line crossings in the following 10 min.

pCREB/CREB = assay: Western blot of pCREB/CREB in brain tissue of CUS mice; format: in vivo, male ICR mice; conditions: RES003 10 mg/kg, vs model group, p < 0.05
Method: as §2, §3, §4
(§5) The brain tissues were dissected and stored at −80 °C until analysis after mice were sacrificed. […] The detection and quantification of specific bands were performed using a fluorescence scanner and ‘Image-Pro’ software. […]

BDNF = assay: Western blot of BDNF expression in brain tissue of CUS mice; format: in vivo, male ICR mice; conditions: RES003 5 and 10 mg/kg, vs model group, p < 0.05 and 0.01
Method: as §2, §3, §4, §5

[2] = system: chronic unpredictable stress mice; assay: Forced swimming test (FST) after chronic unpredictable stress; format: in vivo, male ICR mice; conditions: fluoxetine 5 mg/kg i.p., CUS mice, p < 0.05
Method: as §2, with “Mice were given intra-gastric (i.g.) administration (RES003: 2.5, 5.0 and 10 mg/kg) or intraperitoneal (i.p.) injections (fluoxetine: 5 mg/kg and rolipram: 10 mg/kg) in a volume of 10 mL/kg body weight.” left out
as §4
According to the previous description, animals were individually placed in glass cylinders (25 cm height, 10 cm diameter) containing 10 cm depth of water at 24 ± 1 °C for 6 min, allowing for free swimming (Porsolt et al. [1978]). […] A mouse was determined to be immobile when there were only small movements necessary to keep its head above water. The immobility time was recorded during the 5 min testing period.

SMILES	IC50 (PDE1)	IC50 (PDE2)	IC50 (PDE3)	IC50 (PDE4)	selectivity for PDE4 over PDE1, PDE2, PDE3 and PDE5 (PDE4; ratio of IC50 values)	IC50 (PDE5)	consumption of sugar water (sucrose preference) [1]	locomotor activity (line crossings in 10 min) (mice)	ratio of pCREB/CREB in brain tissue (pCREB/CREB)	BDNF expression in brain tissue (BDNF)	immobility time in forced swimming test [2]
Oc1ccc(-c2cc(-c3cc(O)cc(O)c3)n[nH]2)cc1 [RES003, 5-[5-(4-Hydroxyphenyl)-1H-pyrazol-3-yl]benzene-1,3-diol]	92.6 ± 8.3 µM	> 100 µM	> 100 µM	0.87 µM	> 100 fold	> 100 µM	significantly increase the consumption of sugar water	did not affect the locomotor activity	reversed	significantly upregulated	–
CNCCC(Oc1ccc(C(F)(F)F)cc1)c1ccccc1 (stereo not shown) [fluoxetine, Fluoxetine, reference compound]	–	–	–	–	–	–	–	–	–	–	significant anti-depressant-like effects
Oc1ccc(/C=C/c2cc(O)cc(O)c2)cc1 [resveratrol, Resveratrol]	8.7 ± 1.1 µM	> 100 µM	12.7 ± 2.1 µM	18.8 µM	–	> 100 µM	–	–	–	–	–

From paper PMC8049461, “The anti-depressant effects of a novel PDE4 inhibitor derived from resveratrol” (Pharmaceutical Biology, 2021)
